Assay results published in PubChem BioAssay AID328 (DTP/NCI, 2004).
“And” between values parts separate entries of the source, which are not always exact repeats. Identical values can stand only once. Inconclusive results and toxic doses are left out.

Tested on: BDF1 mice, P388 leukemia ip, median survival T/C
Test: NCI In Vivo Anticancer Drug Screen. Data for tumor model P388 Leukemia (intraperitoneal) in B6D2F1 (BDF1) mice
Conditions: endpoint: median survival time, higher = longer survival
Procedure, shortened: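 Read-out is survival of treated animals expressed relative to the vehicle group, as a T/C ratio.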

[1] = dose: 50.0 mg/kg/injection, schedule: Q01DX009 (ip), vehicle: saline
[2] = dose: 200.0 mg/kg/injection, schedule: Q04DX003 (ip), vehicle: saline
[3] = dose: 300.0 mg/kg/injection, schedule: Q04DX003 (ip), vehicle: saline
[4] = dose: 400.0 mg/kg/injection, schedule: Q04DX003 (ip), vehicle: alcohol
[5] = dose: 100.0 mg/kg/injection, schedule: Q01DX009 (ip), vehicle: saline with Tween-80
[6] = dose: 100.0 mg/kg/injection, schedule: Q04DX003 (ip), vehicle: saline with Tween-80
[7] = dose: 200.0 mg/kg/injection, schedule: Q01DX009 (ip), vehicle: saline with Tween-80
[8] = dose: 200.0 mg/kg/injection, schedule: Q04DX003 (ip), vehicle: saline with Tween-80
[9] = dose: 400.0 mg/kg/injection, schedule: Q04DX003 (ip), vehicle: saline with Tween-80
[10] = dose: 50.0 mg/kg/injection, schedule: Q01DX009 (ip), vehicle: saline with Tween-80
[11] = dose: 6.25 mg/kg/injection, schedule: Q01DX009 (ip), vehicle: saline
[12] = dose: 25.0 mg/kg/injection, schedule: Q01DX009 (ip), vehicle: other

CCN(CC)CCNc1ccc(C)c2sc3ccccc3c(=O)c12 (tested in a mixture with another compound)
T/C (dose: 5.5 mg/kg/injection, schedule: Q01DX009 (ip), vehicle: saline): 100 % of control and 121 % of control
T/C (dose: 8.2 mg/kg/injection, schedule: Q01DX009 (ip), vehicle: saline): 90 % of control and 110 % of control
T/C (dose: 22.0 mg/kg/injection, schedule: Q01DX009 (ip), vehicle: saline): 122 % of control
T/C (dose: 33.0 mg/kg/injection, schedule: Q01DX009 (ip), vehicle: saline): 110 % of control
T/C (dose: 35.0 mg/kg/injection, schedule: Q01DX009 (ip), vehicle: saline): 116 % of control
T/C [1]: 154 % of control
T/C (dose: 75.0 mg/kg/injection, schedule: Q01DX009 (ip), vehicle: saline): 154 % of control and 180 % of control
T/C (dose: 88.0 mg/kg/injection, schedule: Q04DX003 (ip), vehicle: saline): 122 % of control
T/C (dose: 100.0 mg/kg/injection, schedule: Q04DX003 (ip), vehicle: alcohol): 94 % of control
T/C (dose: 100.0 mg/kg/injection, schedule: Q04DX003 (ip), vehicle: saline): 116 % of control
T/C (dose: 200.0 mg/kg/injection, schedule: Q04DX003 (ip), vehicle: alcohol): 111 % of control
T/C [2]: 166 % of control
T/C [3]: 95 % of control
T/C [4]: 111 % of control

CCOC(=O)C(C)C(OCC)OCC (configuration not stated)
T/C [5]: 95 % of control
T/C [6]: 100 % of control
T/C [7]: 109 % of control
T/C [8]: 91 % of control
T/C (dose: 400.0 mg/kg/injection, schedule: Q01DX009 (ip), vehicle: saline with Tween-80): 109 % of control
T/C [9]: 100 % of control

O=C(NC(=O)c1c(F)cccc1F)Nc1nc2cc(Cl)ccc2o1
T/C (dose: 25.0 mg/kg/injection, schedule: Q01DX009 (ip), vehicle: saline with Tween-80): 96 % of control
T/C [10]: 96 % of control
T/C [5]: 90 % of control

NC(CC[Se]CC(N)C(=O)O)C(=O)O (configuration not stated)
T/C (dose: 0.5 mg/kg/injection, schedule: Q01DX010 (ip), vehicle: saline): 90 % of control
T/C (dose: 1.0 mg/kg/injection, schedule: Q01DX010 (ip), vehicle: saline): 104 % of control
T/C (dose: 2.0 mg/kg/injection, schedule: Q01DX010 (ip), vehicle: saline): 100 % of control
T/C (dose: 4.0 mg/kg/injection, schedule: Q01DX010 (ip), vehicle: saline): 104 % of control

Cc1ccc(Nc2c3ccccc3nc3ccccc23)cc1
T/C (dose: 100.0 mg/kg/injection, schedule: Q01DX001 (ip), vehicle: Klucel (hydroxypropylcellulose) (HPC)): 109 % of control
T/C (dose: 200.0 mg/kg/injection, schedule: Q01DX001 (ip), vehicle: Klucel (hydroxypropylcellulose) (HPC)): 118 % of control
T/C (dose: 400.0 mg/kg/injection, schedule: Q01DX001 (ip), vehicle: Klucel (hydroxypropylcellulose) (HPC)): 113 % of control

CC1(C)CC(=O)NN1C(=O)c1ccccc1
T/C [6]: 100 % of control
T/C [8]: 105 % of control
T/C [9]: 95 % of control

Cc1cc2nc[nH]c(=O)n2n1
T/C [10]: 110 % of control
T/C [5]: 90 % of control

CCC(=N\NC(=S)NCCN(CC)CC)/C(C)=N/NC(=S)NCCN(CC)CC
T/C (dose: 1.56 mg/kg/injection, schedule: Q01DX009 (ip), vehicle: saline): 116 % of control
T/C (dose: 3.13 mg/kg/injection, schedule: Q01DX009 (ip), vehicle: saline): 105 % of control
T/C [11]: 106 % of control
T/C (dose: 12.5 mg/kg/injection, schedule: Q01DX009 (ip), vehicle: saline): 109 % of control and 118 % of control

N#CN=C([S-])[S-].N#CN=C([S-])[S-].[Cu]
T/C (dose: 0.39 mg/kg/injection, schedule: Q01DX001 (ip), vehicle: saline): 104 % of control
T/C (dose: 0.78 mg/kg/injection, schedule: Q01DX001 (ip), vehicle: saline): 100 % of control
T/C (dose: 1.56 mg/kg/injection, schedule: Q01DX001 (ip), vehicle: saline): 100 % of control
T/C [11]: 100 % of control
T/C (dose: 6.25 mg/kg/injection, schedule: Q04DX003 (ip), vehicle: saline): 86 % of control
T/C (dose: 12.5 mg/kg/injection, schedule: Q04DX003 (ip), vehicle: saline): 100 % of control

CC1(C)C2CC3C(C(=O)O)CCCC3(C2)C1Br (configuration not stated)
T/C (dose: 100.0 mg/kg/injection, schedule: Q04DX003 (ip), vehicle: Klucel (hydroxypropylcellulose) (HPC)): 90 % of control
T/C (dose: 200.0 mg/kg/injection, schedule: Q04DX003 (ip), vehicle: Klucel (hydroxypropylcellulose) (HPC)): 100 % of control
T/C (dose: 400.0 mg/kg/injection, schedule: Q04DX003 (ip), vehicle: Klucel (hydroxypropylcellulose) (HPC)): 95 % of control

O=C(Nc1ccccc1F)Nc1cccc2ccccc12
T/C (dose: 100.0 mg/kg/injection, schedule: Q01DX001 (ip), vehicle: saline with Tween-80): 100 % of control
T/C (dose: 200.0 mg/kg/injection, schedule: Q01DX001 (ip), vehicle: saline with Tween-80): 100 % of control
T/C (dose: 400.0 mg/kg/injection, schedule: Q01DX001 (ip), vehicle: saline with Tween-80): 90 % of control

COC(=O)C(Sc1ccc(Cl)cc1)C1SC(=S)N(C)C1=O (configuration not stated)
T/C [5]: 118 % of control
T/C [7]: 92 % of control

Cc1ccc(N2CCOC2=O)cc1N1CCOC1=O
T/C [12]: 100 % of control
T/C (dose: 25.0 mg/kg/injection, schedule: Q04DX003 (ip), vehicle: other): 109 % of control
T/C (dose: 50.0 mg/kg/injection, schedule: Q01DX009 (ip), vehicle: other): 100 % of control
T/C (dose: 50.0 mg/kg/injection, schedule: Q04DX003 (ip), vehicle: other): 100 % of control
T/C (dose: 100.0 mg/kg/injection, schedule: Q01DX009 (ip), vehicle: other): 109 % of control
T/C (dose: 100.0 mg/kg/injection, schedule: Q04DX003 (ip), vehicle: other): 100 % of control

O=C(O)c1cc(Cl)c(C(=O)O)cc1Cl
T/C (dose: 75.0 mg/kg/injection, schedule: Q01DX009 (ip), vehicle: saline with Tween-80): 116 % of control
T/C (dose: 150.0 mg/kg/injection, schedule: Q01DX009 (ip), vehicle: saline with Tween-80): 104 % of control
T/C (dose: 300.0 mg/kg/injection, schedule: Q01DX009 (ip), vehicle: saline with Tween-80): 108 % of control

CC1(c2ccccc2)O[C@@H]2C[C@H]3[C@@H]4CCC5=CC(=O)C=C[C@]5(C)[C@@]4(F)[C@@H](O)C[C@]3(C)[C@]2(C(=O)CO)O1 (some centres not stated)
T/C [1]: 100 % of control
T/C (dose: 100.0 mg/kg/injection, schedule: Q01DX009 (ip), vehicle: saline): 100 % of control
T/C (dose: 132.0 mg/kg/injection, schedule: Q04DX003 (ip), vehicle: saline): 90 % of control and 95 % of control (2×)
T/C [2]: 86 % of control and 95 % of control and 100 % of control
T/C [3]: 105 % of control
T/C [4]: 105 % of control

COc1ccc(/C=C(\C)[N+](=O)[O-])cc1OC
T/C (dose: 3.13 mg/kg/injection, schedule: Q01DX009 (ip), vehicle: other): 116 % of control
T/C (dose: 6.25 mg/kg/injection, schedule: Q01DX009 (ip), vehicle: other): 116 % of control
T/C (dose: 12.5 mg/kg/injection, schedule: Q01DX009 (ip), vehicle: other): 110 % of control
T/C [12]: 118 % of control
